From patent US20130237556A1, “BERBERINE ALKALOID AS A MEDICAMENT FOR PREVENTION AND TREATMENT OF NEURAL DISEASE” (HONG KONG BAPTIST UNIVERSITY, priority 2012, published 2013)
Entries after “also recorded” stand apart in the source; their conditions may differ.

Legend:
TgCRND8 mice [1] = experiment: Morphometric analysis of Aβ plaque size subsets; format: in vivo, mouse
N2a-SwedAPP cells [2] = experiment: Immunofluorescence of p-APP in endosomal compartments (Rab5); format: cell-based, mouse; conditions: 20 μM BBR, 3 h
Procedure: N2a-SweAPP cells are mouse neuroblastoma N2a cells stably transfected with human Swedish mutant APP695, and were gifts from Dr. Gopal Thinakaran (University of Chicago, Chicago Ill.). Cells were maintained in Dulbecco's modified Eagle's medium (DMEM) (Invitrogen, Carlsbad, Calif.) supplemented with 10% fetal bovine serum, penicillin and streptomycin and 200 μg/mL G418 (Invitrogen). Cells were cultured either in multiwell dishes or on 60 mm tissue culture plates in DMEM 10% with FBS Cell cultures were incubated at 37° C. in a humid 5% CO2/ 95% air environment. After cells were grown close to confluence, they were treated with/without different concentrations of BBR in DMEM (1% FBS) for 24 h. […]
For higher resolution microscopy, images were acquired using an Olympus IX70 Delta Vision microscopy system (Applied Precision, Issaquah, Wash.) with a 100×1.5 numerical aperture oil immersion lens. […] Subsequently serial Z-stacks of fluorescence images at 0.2-μm interval were acquired and deconvolved via a controlled iterative algorithm to generate high-resolution images of cells using […] (Applied Precision).

[3] = BBR levels in TgCRND8 brain tissue by LC/MS after oral administration; format: in vivo, mouse; conditions: for concentration at 3 hr: TgCRND8, mouse, brain, po, 3 hr after p.o. administration, LC/MS
Procedure: To determine how oral administration of BBR influences the concentration of BBR in the brain, liquid chromatography and mass spectrometry techniques (LC/MS) are used to analyze changes in BBR levels in the TgCRND8 brain tissue in a separate experiment. BBR levels in the brain are found to be 0.88±0.27 and 1.67±0.73 μM for low and high doses of BBR respectively after 3 hr p.o. administration.

TgCRND8 mice [4] = experiment: Western blot of brain homogenates (APP processing, tau phosphorylation, Akt/GSK3); format: in vivo, mouse
Aβ1-42 fibril formation = Aβ1-42 fibril formation (Homo sapiens, UniProt P05067); experiment: Inhibition of Aβ1-42 fibril formation in vitro; format: biochemical
Aβ1-42 fibril formation, sequence (P05067 672-713 limits assumed): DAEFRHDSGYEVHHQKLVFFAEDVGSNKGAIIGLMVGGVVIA

TgCRND8 mice [5] = experiment: Morris water maze (visible platform, hidden platform, probe trials); format: in vivo, mouse
N2a-SwedAPP cells [6] = experiment: MTT toxicity assay; format: cell-based, mouse; conditions: up to 25 μM BBR, 24 h
Procedure: N2a-SweAPP cells are mouse neuroblastoma N2a cells stably transfected with human Swedish mutant APP695, and were gifts from Dr. Gopal Thinakaran (University of Chicago, Chicago Ill.). Cells were maintained in Dulbecco's modified Eagle's medium (DMEM) (Invitrogen, Carlsbad, Calif.) supplemented with 10% fetal bovine serum, penicillin and streptomycin and 200 μg/mL G418 (Invitrogen). Cells were cultured either in multiwell dishes or on 60 mm tissue culture plates in DMEM 10% with FBS Cell cultures were incubated at 37° C. in a humid 5% CO2/ 95% air environment. After cells were grown close to confluence, they were treated with/without different concentrations of BBR in DMEM (1% FBS) for 24 h. […] For the concentration-dependent treatment, cells were treated with serial dilutions of BBR ranging from 0-20 μM for 2 or 12 h prior to lysis with ice-cold RIPA buffer (20 mM Tris, pH 7.4, 150 mM NaCl, 1% triton-X, 0.5% sodium deoxycholate, EDTA) containing protease inhibitor cocktails (EMD chemicals, Philadelphia, Pa.) to find the optimal range of BBR. For the time-dependent application, cells were treated with a 20 μM concentration of BBR and incubated at time points ranging from 0-180 min prior to lysis. For immunofluorescent staining, N2a-SwedAPP cells were seeded on glass cover slips at a density of 0.5×10^5 viable cells per well in a 24-well plate. […]

[7] = Regular oral BBR treatment of TgCRND8 mice: body weight and side effects; conditions: BBR 25 or 100 mg/kg/d orally for 4 months
TgCRND8 mice [8] = experiment: Aβ1-40 and Aβ1-42 sandwich ELISA in SDS and formic acid brain extracts; format: in vivo, mouse
[9] = BBR 25 and 100 mg/Kg/d vs vehicle
[10] = BBR- vs vehicle-treated TgCRND8
[11] = BBR-treated vs vehicle-treated TgCRND8, dose not stated
[12] = low dose BBR, SDS and FA fractions

In the case of `COc1ccc2cc3[n+](cc2c1OC)CCc1cc2c(cc1-3)OCO2` [BBR, 5,6-dihydro-9,10-dimethoxybenzo[g]-1,3-benzodioxolo[5,6-a]quinolizinium], the “percentage reduction in large (>50) amyloid plaque subset” value (TgCRND8 mice [1]; 25 mg/Kg) is reported as 60%, the “percentage reduction in medium (25-50 μm) amyloid plaque subset” value (TgCRND8 mice [1]; 25 mg/Kg) is reported as 41% and the “percentage reduction in small sized (<25 μm) amyloid plaque subset” value (TgCRND8 mice [1]; 25 mg/Kg) is reported as 35%. The “percentage reduction in total amyloid plaque number” value (TgCRND8 mice [1]; 25 mg/Kg) was 37%, the “reduction of amyloid plaque subsets” value (TgCRND8 mice [1]; 100 mg/Kg/d) was 21-28% and the “pAPP staining in the endosomal compartments” value (N2a-SwedAPP cells [2]) was “markedly reduced”. The concentration at 3 hr ([3]; 25 mg/kg/d, low dose of BBR) was 880 ± 270 nM, the concentration at 3 hr ([3]; 100 mg/kg/d, high dose of BBR) was 1670 ± 730 nM and the “passage through the blood-brain barrier” value ([3]; mouse, in vivo) was “readily passes through the blood-brain barrier”. For the same compound, the “CTF-α and β levels in brain homogenates” value (TgCRND8 mice [4]; 25 mg/Kg/day) was “significantly reduces”, the “ADAM-10 level in brain homogenates” value (TgCRND8 mice [4]; [9]) was “no significant difference; also recorded: no effect” and the “BACE-1 level in brain homogenates” value (TgCRND8 mice [4]; [9]) was “no effect; also recorded: no significant difference”. The “full length APP level in brain homogenates” value (TgCRND8 mice [4]; [9]) was “no effect; also recorded: no significant difference”, the “total GSK3α/β and total Akt” value (TgCRND8 mice [4]; BBR treatment) was “unaltered” and the “IDE level in brain homogenates” value (TgCRND8 mice [4]; BBR vs vehicle) was “no significant difference; also recorded: does not affect”. For the same compound, the “neprilysin level in brain homogenates” value (TgCRND8 mice [4]; BBR vs vehicle) was “no significant difference; also recorded: does not affect”, the “p-Cdk5 (Y15) level” value (TgCRND8 mice [4]; [10]) was “no significant differences” and the “p-JNK (Thr183/Tyr185) level” value (TgCRND8 mice [4]; [10]) was “no significant differences”. For the same compound, the “phosphorylated Akt (p-Akt) level normalized to total Akt” value (TgCRND8 mice [4]; [10]) was “significantly high”, the “tau-1 immunoreactivity (dephosphorylated tau)” value (TgCRND8 mice [4]; BBR-treated TgCRND8) was “significant increase” and the “enhancement in phosphorylated GSK3α and β at Ser 21 and 9” value (TgCRND8 mice [4]; BBR-treated vs vehicle-treated TgCRND8) was 50%. For the same compound, the “decrease of phosphorylated tau at AT8 phosphoepitope” value (TgCRND8 mice [4]; [11]) was 30%, the “decrease of phosphorylated tau at AT180 phosphoepitope” value (TgCRND8 mice [4]; [11]) was 42% and the “decrease of phosphorylated tau at PHF-1 phosphoepitope” value (TgCRND8 mice [4]; [11]) was 26%. For the same compound, the total tau levels (TgCRND8 mice [4]; between the groups) was “No significant difference”, the “decrease in the p-APP and p-CTFs” value (TgCRND8 mice [4]; high dose group vs vehicle) was 27-28% and the “decrease in the p-APP and p-CTFs” value (TgCRND8 mice [4]; low dose group vs vehicle) was 46-50%. The IC50 (Aβ1-42 fibril formation; in vitro) was 23.5 µM, the “effective in vitro concentration (approximately 20 μM) relative to brain levels” value (Aβ1-42 fibril formation; printed as 'times less than those found in the brain') was 23 times and the “probe trial: time spent in the target quadrant” value (TgCRND8 mice [5]; 25 and 100 mg/kg/d vs vehicle-treated TgCRND8) was “highest duration; also recorded: prevent decrease in the time spent in the target quadrant”. For the same compound, the “probe trial: spatial bias” value (TgCRND8 mice [5]; BBR 25 mg/Kg, all probe trials) was “significantly increases their spatial bias”, the “hidden platform path distance (swim path)” value (TgCRND8 mice [5]; low and high doses of BBR (25 and 100 mg/kg/d) vs vehicle-treated TgCRND8) was “significantly reduced swim path; also recorded: reduced the path distance; also recorded: show a reduction in swimming distance” and the “cell viability (MTT)” value (N2a-SwedAPP cells [6]) was “did not affect cell viability”. For the same compound, the animal body weight [7] was “does not significantly influence animal body weight”, the “diminution of Aβ1-40, SDS-soluble fraction” value (TgCRND8 mice [8]; 25 mg/Kg/d) was 44% and the “reduction of Aβ1-40, formic acid extractable fraction” value (TgCRND8 mice [8]; 25 mg/Kg/d) was 49%. The “reduction of Aβ1-42, formic acid extractable fraction” value (TgCRND8 mice [8]; 25 mg/Kg/d) was 44%, the “diminution of Aβ1-40, SDS-soluble fraction” value (TgCRND8 mice [8]; 100 mg/Kg/d) was 32% and the “reduction of Aβ1-40, formic acid extractable fraction” value (TgCRND8 mice [8]; 100 mg/Kg/d) was 54%. The “reduction of Aβ1-42, formic acid extractable fraction” value (TgCRND8 mice [8]; 100 mg/Kg/d) was 39%, the “Aβ1-42, SDS-soluble fraction” value (TgCRND8 mice [8]; BBR treatments (25 and 100 mg/Kg/d)) was “slight reduction” and the “reduction of total extracted Aβ40” value (TgCRND8 mice [8]; [12]) was 44-49%. The “reduction of total extracted Aβ42” value (TgCRND8 mice [8]; [12]) was 22-43%.
